Data: US20240376094A2, “SELECTIVE BCL-XL PROTAC COMPOUNDS AND METHODS OF USE” (Les Laboratoires Servier, priority 2021, published 2024)

The molecules below were run against T1, endogenous BCL-xL (Homo sapiens, UniProt Q07817) (assay: Degradation of endogenous BCL-xL in COR-L105 (ProteinSimple Jess)). Conditions: COR-L105, 24 h, COR-L105, dose 300 nM, read-out: % BCL-xL vs. Untreated, COR-L105.
T1 construct: endogenous in cells; host or cells: COR-L105 (ECACC No. 92031918); NCI-H1650 (ATCC No. CRL-5883)
Type: cell-based
In short: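 COR-L105 cells (2,000,000/well) treated 24 h at 37 °C with compound at 100–300 nM final, singlet, alongside untreated cells. RIPA lysates normalized by BCA to 1.5 mg/mL, then BCL-xL detected by capillary immunoassay (2–40 kDa Jess) comparing treated with untreated lysates.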

T1 sequence (Q07817 whole entry): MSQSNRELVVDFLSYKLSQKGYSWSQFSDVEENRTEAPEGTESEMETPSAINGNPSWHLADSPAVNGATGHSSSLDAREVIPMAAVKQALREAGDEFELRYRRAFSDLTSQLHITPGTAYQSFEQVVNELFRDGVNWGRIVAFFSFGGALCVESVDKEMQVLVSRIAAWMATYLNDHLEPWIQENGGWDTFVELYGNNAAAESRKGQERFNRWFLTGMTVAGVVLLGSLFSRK

Compared with `Cc1ncsc1-c1ccc([C@H](C)NC(=O)[C@@H]2C[C@@H](O)CN2C(=O)[C@@H](NC(=O)CCCCCCCCCCCN2CCN(CC#Cc3ccc(OCCCc4sc(N5CCCc6c5nnc(Nc5nc7ccccc7s5)c6C)nc4C(=O)O)c(F)c3)CC2)C(C)(C)C)cc1` [Example 51, 2-(3-(benzo[d]thiazol-2-ylamino)-4-methyl-6,7-dihydropyrido [2,3-c]pyridazin-8(5H)-yl)-5-(3-(2-fluoro-4-(3-(4-(12-(((S)-1-((2S,4R)-4-hydroxy-2-(((S)-1-(4-(4-methylthiazol-5-yl)phenyl)ethyl)carbamoyl)pyrrolidin-1-yl)-3,3-dimethyl-1-oxobutan-2-yl)amino)-12-oxododecyl)piperazin-1-yl)prop-1-yn-1-yl)phenoxy)propyl)thiazole-4-carboxylic acid], `Cc1ncsc1-c1ccc([C@H](C)NC(=O)[C@@H]2C[C@@H](O)CN2C(=O)[C@@H](NC(=O)CCCCCCCCCCC(=O)N2CCN(CC#Cc3ccc(OCCCc4sc(N5CCCc6c5nnc(Nc5nc7ccccc7s5)c6C)nc4C(=O)O)c(F)c3)CC2)C(C)(C)C)cc1` [Example 46, 2-(3-(benzo[d]thiazol-2-ylamino)-4-methyl-6,7-dihydropyrido [2,3-c]pyridazin-8(5H)-yl)-5-(3-(2-fluoro-4-(3-(4-(12-(((S)-1-((2S,4R)-4-hydroxy-2-(((S)-1-(4-(4-methylthiazol-5-yl)phenyl)ethyl)carbamoyl)pyrrolidin-1-yl)-3,3-dimethyl-1-oxobutan-2-yl)amino)-12-oxododecanoyl)piperazin-1-yl)prop-1-yn-1-yl)phenoxy)propyl)thiazole-4-carboxylic acid] is higher in remaining activity at 0.3 µM: 12.1% for the first, 22.6% for the second.

Going from `Cc1ncsc1-c1ccc(CNC(=O)[C@@H]2CC(O)CN2C(=O)C(NC(=O)CCCCCCC(=O)N2CCN(CCOC34CC5(C)CC(C)(CC(Cn6ncc(-c7ccc(N8CCCc9c8nnc(Nc8nc%10ccccc%10s8)c9C)nc7C(=O)O)c6C)(C5)C3)C4)CC2)C(C)(C)C)cc1` (stereo in doubt) [Example 24, 6-[3-(1,3-benzothiazol-2-ylamino)-4-methyl-6,7-dihydro-5H-pyrido[2,3-c]pyridazin-8-yl]-3-[1-[[3-[2-[4-[8-[[(1S)-1-[(2S,4R)-4-hydroxy-2-[[4-(4-methylthiazol-5-yl)phenyl]methylcarbamoyl]pyrrolidine-1-carbonyl]-2,2-dimethyl-propyl]amino]-8-oxo-octanoyl]piperazin-1-yl]ethoxy]-5,7-dimethyl-1-adamantyl]methyl]-5-methyl-pyrazol-4-yl]pyridine-2-carboxylic acid] to `Cc1ncsc1-c1ccc([C@H](C)NC(=O)[C@@H]2C[C@@H](O)CN2C(=O)[C@@H](NC(=O)CCCCCCCCCCC(=O)N2CCN(CCOC34CC5(C)CC(C)(CC(Cn6ncc(-c7ccc(N8CCCc9c8nnc(Nc8nc%10ccccc%10s8)c9C)nc7C(=O)O)c6C)(C5)C3)C4)CC2)C(C)(C)C)cc1` [Example 47, 6-(3-(benzo[d]thiazol-2-ylamino)-4-methyl-6,7-dihydropyrido [2,3-c]pyridazin-8(5H)-yl)-3-(1-(((1r,3s,5R,7S)-3-(2-(4-(12-(((S)-1-((2S,4R)-4-hydroxy-2-(((S)-1-(4-(4-methylthiazol-5-yl)phenyl)ethyl)carbamoyl)pyrrolidin-1-yl)-3,3-dimethyl-1-oxobutan-2-yl)amino)-12-oxododecanoyl)piperazin-1-yl)ethoxy)-5,7-dimethyladamantan-1-yl)methyl)-5-methyl-1H-pyrazol-4-yl)picolinic acid], the remaining activity at 0.3 µM falls from 40% to 22.3%.

Compared with `Cc1ncsc1-c1ccc([C@H](C)NC(=O)[C@@H]2C[C@@H](O)CN2C(=O)[C@@H](NC(=O)CCCC(=O)N2CCN(CC#Cc3ccc(OCCCc4sc(N5CCCc6c5nnc(Nc5nc7ccccc7s5)c6C)nc4C(=O)O)c(F)c3)CC2)C(C)(C)C)cc1` [Example 35, 2-(3-(benzo[d]thiazol-2-ylamino)-4-methyl-6,7-dihydropyrido [2,3-c]pyridazin-8(5H)-yl)-5-(3-(2-fluoro-4-(3-(4-(5-(((S)-1-((2S,4R)-4-hydroxy-2-(((S)-1-(4-(4-methylthiazol-5-yl)phenyl)ethyl)carbamoyl)pyrrolidin-1-yl)-3,3-dimethyl-1-oxobutan-2-yl)amino)-5-oxopentanoyl)piperazin-1-yl)prop-1-yn-1-yl)phenoxy)propyl)thiazole-4-carboxylic acid], `Cc1ncsc1-c1ccc(CNC(=O)[C@@H]2C[C@@H](O)CN2C(=O)[C@@H](NC(=O)CCCCCCC(=O)N2CCN(CC#Cc3ccc(OCCCc4sc(N5CCCc6c5nnc(Nc5nc7ccccc7s5)c6C)nc4C(=O)O)c(F)c3)CC2)C(C)(C)C)cc1` [Example 33, 2-(3-(benzo[d]thiazol-2-ylamino)-4-methyl-6,7-dihydropyrido [2,3-c]pyridazin-8(5H)-yl)-5-(3-(2-fluoro-4-(3-(4-(8-(((S)-1-((2S,4R)-4-hydroxy-2-((4-(4-methylthiazol-5-yl)benzyl)carbamoyl)pyrrolidin-1-yl)-3,3-dimethyl-1-oxobutan-2-yl)amino)-8-oxooctanoyl)piperazin-1-yl)prop-1-yn-1-yl)phenoxy)propyl) thiazole-4-carboxylic acid] is lower in remaining activity at 0.3 µM: > 90% for the first, 64.8% for the second.

`Cc1ncsc1-c1ccc([C@H](C)NC(=O)[C@@H]2C[C@@H](O)CN2C(=O)[C@@H](NC(=O)CC23CC4CC(C2)CC(CC(=O)N2CCN(CC#Cc5ccc(OCCCc6sc(N7CCCc8c7nnc(Nc7nc9ccccc9s7)c8C)nc6C(=O)O)c(F)c5)CC2)(C4)C3)C(C)(C)C)cc1` [Example 42, 2-(3-(benzo[d]thiazol-2-ylamino)-4-methyl-6,7-dihydropyrido [2,3-c]pyridazin-8(5H)-yl)-5-(3-(2-fluoro-4-(3-(4-(2-((3S,5R)-3-(2-(((S)-1-((2S,4R)-4-hydroxy-2-(((S)-1-(4-(4-methylthiazol-5-yl)phenyl)ethyl)carbamoyl)pyrrolidin-1-yl)-3,3-dimethyl-1-oxobutan-2-yl)amino)-2-oxoethyl)adamantan-1-yl)acetyl)piperazin-1-yl)prop-1-yn-1-yl)phenoxy)propyl)thiazole-4-carboxylic acid] was tested, and the remaining activity at 0.3 µM was 33.3%.
